Data reported in patent US9573961B2, “Inhibitors of the renal outer medullary potassium channel” (Merck Sharp & Dohme Corp., priority 2012, dated 2017).
Read-outs that look alike come from different tables or passages of the source.

Key:
[1] = target: hROMK (hKir1.1) (Homo sapiens (Human), UniProt P48048); assay: Thallium Flux Assay (ROMK channel functional thallium flux, FLIPR-Tetra); assay type: cell-based; conditions: read-out: Thallium Flux IC50
Protocol: Cell Culture Conditions—HEK293 cells stably expressing hROMK (hKir1.1) were grown at 37° C. in a 10% CO2 humidified incubator in complete growth media: Dulbecco's Modified Eagle Medium supplemented with non-essential amino acids, Penicillin/Streptomycin/Glutamine, G418 and FBS. At >80% confluency, aspirate the media from the flask and rinse with 10 mL Calcium/Magnesium-free PBS. […] To dislodge the cell, gently bang the side of the flask with your hand. Triturate the cells completely and then transfer the cells to 25 mL complete media. Centrifuge at 1,500 rpm for 6 min followed by resuspension in complete growth media and determine cell concentration. […] Under ideal growth conditions and appropriate tissue culture practices, this cell line is stable for 40-45 passages.
FluxOR Kit Components (Invitrogen F10017) • FluxOR™ Reagent (Component A) • FluxOR™ Assay Buffer (Component B)—10× Concentrate • PowerLoad™ Concentrate (Component C)—100× Concentrate • Probenecid (Component D)—Lyophilized sample is kept at −20° C. Water soluble, 100× after solubilization in 1 mL water. […] Store at 4° C. • Thallium sulfate (Tl2SO4) Concentrate (Component G)—50 mM in water. Store at 4° C. • DMSO (dimethyl sulfoxide, Component H)—1 mL (100%)
Can be stored at room temperature • Stimulant Buffer (prepared at 5× final concentration in 1× FluxOR™ Chloride-Free Buffer): 7.5 mM Thallium sulfate and 0.75 mM Potassium sulfate (to give a final assay concentration of 3 mM Thallium/0.3 mM Potassium). Store at 4° C. when not in use. If kept sterile, this solution is good for months.
Assay Protocol—The ROMK channel functional thallium flux assay is performed in 384 wells, using the FLIPR-Tetra instrument. HEK-hKir1.1 cells are seeded in Poly-D-Lysine microplates and kept in a 37° C.-10% CO2 incubator overnight. On the day of the experiment, the growth media is replaced with the FluxOR™ reagent loading buffer and incubated, protected from light, at ambient temperature (23-25° C.) for 90 min. The loading buffer is replaced with assay buffer±test compound followed by 30 min incubation at ambient temperature, where the Thallium/Potassium stimulant is added to the microplate.
Step Protocol • 1. Seed HEK-hKir1.1 cells (50 μl at 20,000 cells/well) in 384-well PDL coated Microplates • 2. Allow cells to adhere overnight in humidified 37° C./10% CO2 incubator • 3. Completely remove cell growth media from microplate and replace with 25 μl loading buffer • 4. Incubate Microplate at room temperature, protected form light, for 90 min • 5. Remove loading buffer and replace with 25 μl 1× Assay Buffer±test compound. • 6. Incubate microplate at room temperature, protected from light, for 30 min • 7. […] Excitation=400 nm, Emission=460 & 580 nm. Collect data for ˜10 min.
Data Calculation—The fluorescence intensity of wells containing 3 μM of a standard control ROMK inhibitor of the present invention is used to define the ROMK-sensitive component of thallium flux. Fluorescence in the presence of test compounds is normalized to control values to provide % fluorescence change.

[2] = target: Kir1.1 (ROMK1) (Homo sapiens (Human), UniProt P48048); assay: Electrophysiology Assay (whole cell voltage clamp, IonWorks Quattro); assay type: cell-based; conditions: block during voltage step to 0 mV
Sequence of Kir1.1 (ROMK1) (P48048 whole entry): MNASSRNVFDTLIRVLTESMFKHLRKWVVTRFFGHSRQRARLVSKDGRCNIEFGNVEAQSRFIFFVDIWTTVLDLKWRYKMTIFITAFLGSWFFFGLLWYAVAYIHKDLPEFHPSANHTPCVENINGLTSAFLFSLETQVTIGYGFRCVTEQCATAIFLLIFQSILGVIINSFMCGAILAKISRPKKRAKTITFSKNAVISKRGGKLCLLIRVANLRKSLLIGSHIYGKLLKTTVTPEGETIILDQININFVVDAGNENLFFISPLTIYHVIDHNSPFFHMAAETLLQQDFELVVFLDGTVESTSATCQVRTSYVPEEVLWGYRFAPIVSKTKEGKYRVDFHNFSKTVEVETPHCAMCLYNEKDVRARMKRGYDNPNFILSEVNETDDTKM
Protocol: Chinese hamster ovary cells stably expressing Kir1.1 channels were maintained in T-75 flasks in cell culture media in a humidified 10% CO2 incubator at 37° C. Prior to an experiment, Kir1.1 expression was induced by overnight incubation with 1 mM sodium butyrate. […] After centrifugation, the cell pellet was resuspended in approximately 4.0 mL of bath solution and placed in the IonWorks instrument. The intracellular solution consisted of (in mM): 80 K gluconate, 40 KCl, 20 KF, 3.2 MgCl2, 3 EGTA, 5 Hepes, pH 7.4. Electrical access to the cytoplasm was achieved by perforation in 0.13 mg/mL amphotericin B for 4 min. […] Voltage protocols and current recordings were performed using the IonWorks HT software/hardware system. Currents were sampled at 1 kHz. No correction for liquid junction potentials was used. The test pulse, consisting of a 100 ms step to 0 mV from a holding potential of −70 mV, followed by a 100 ms voltage ramp from −70 mV to +70 mV, was applied before and after a 6 min compound incubation period. Test compounds were prepared by diluting DMSO stock solutions into the bath solution at 3× the final concentration and placed in the instrument in 96-well polypropylene plates. Current amplitudes were measured using the IonWorks software.

[3] = Electrophysiology IC50, Chinese hamster ovary cells stably expressing Kir1.1
[4] = HEK293 cells stably expressing hROMK (hKir1.1)
[5] = Chinese hamster ovary cells stably expressing Kir1.1, read-out: Electrophysiology IC50

Sequence of hROMK (hKir1.1) (P48048 whole entry): as above

| SMILES | IC50 [1] | IC50 [2, 3] | IC50 [1, 4] | IC50 [2, 5] |
| --- | --- | --- | --- | --- |
| Cc1c([C@@H]2CN3CCN(C(=O)Cc4ccc5c(c4)COC5=O)C[C@H]3CO2)ccc(F)c1C#N [Example 24, 6-fluoro-2-methyl-3-{(3R,9aS)-8-[(1-oxo-1,3-dihydro-2-benzofuran-5-yl)acetyl]octahydropyrazino[2,1-c][1,4]oxazin-3-yl}benzonitrile] | 60 nM | 80 nM | – | – |
| Cc1c(C#N)cccc1[C@H]1CN2CCN(C(=O)Cc3ccc(-n4cnnn4)cc3)C[C@H]2CO1 [Example 43, 2-methyl-3-[(3S,9aS)-8-{[4-(1H-tetrazol-1-yl)phenyl]acetyl}octahydropyrazino[2,1-c][1,4]oxazin-3-yl]benzonitrile] | – | – | 140 nM | 170 nM |
| Cc1c([C@@H]2CN3CCN(C(=O)Cc4ccc(-n5cnnn5)cc4)C[C@H]3CO2)ccc2c1COC2=O [Example 1A, 4-methyl-5-[(3R,9aS)-8-{[4-(1H-tetrazol-1-yl)phenyl]acetyl}octahydropyrazino[2,1-c][1,4]oxazin-3-yl]-2-benzofuran-1(3H)-one] | – | 100 nM | 30 nM | – |
| Cc1c([C@H]2CN3CCN(C(=O)Cc4cccc(-n5cnnn5)c4)C[C@H]3CO2)ccc(F)c1C#N [Example 46, 6-fluoro-2-methyl-3-[(3S,9aS)-8-{[3-(1H-tetrazol-1-yl)phenyl]acetyl}octahydropyrazino[2,1-c][1,4]oxazin-3-yl]benzonitrile] | – | – | 240 nM | 140 nM |
| Cc1c([C@@H]2CN3CCN(C(=O)C4CCc5cc(-n6cnnn6)ccc54)C[C@H]3CO2)csc1C#N (single isomer, unassigned) [Example 82] | – | – | 330 nM | 110 nM |
| Cc1c([C@H]2CN3CCN(C(=O)Cc4cccc(-n5cnnn5)c4)C[C@@H]3CO2)ccc(F)c1C#N [Example 57, 6-fluoro-2-methyl-3-[(3S,9aR)-8-{[3-(1H-tetrazol-1-yl)phenyl]acetyl}octahydropyrazino[2,1-c][1,4]oxazin-3-yl]benzonitrile] | – | – | 140 nM | 50 nM |
| Cc1c([C@H]2CN3CCN(C(=O)C4CCCc5cc(-n6cnnn6)ccc54)C[C@H]3CO2)ccc2c1COC2=O (single isomer, unassigned) [Example 88] | – | – | 380 nM | 460 nM |
| Cc1c([C@H]2CN3CCN(C(=O)Cc4ccc(-n5cnnn5)cc4)C[C@H]3CO2)ccc2nonc12 [Example 75, (3S,9aS)-3-(4-methyl-2,1,3-benzoxadiazol-5-yl)-8-{[4-(1H-tetrazol-1-yl)phenyl]acetyl}octahydropyrazino[2,1-c][1,4]oxazine] | – | – | 210 nM | 120 nM |
| Cc1c([C@@H]2CN3CCN(C(=O)Cc4ccc(-n5cnnn5)cc4C#N)C[C@@H]3CO2)ccc(F)c1C#N [Example 68, 3-[(3R,9aR)-8-{[2-cyano-4-(1H-tetrazol-1-yl)phenyl]acetyl}octahydropyrazino[2,1-c][1,4]oxazin-3-yl]-6-fluoro-2-methylbenzonitrile] | – | 120 nM | 210 nM | – |
| COc1ccc([C@H]2CN3CCN(C(=O)C4CCc5cc(-n6cnnn6)ccc54)C[C@H]3CO2)c(C)c1C#N (stereo partly drawn) [Example 62, 6-methoxy-2-methyl-3-[(3S,9aS)-8-{[5-(1H-tetrazol-1-yl)-2,3-dihydro-1H-inden-1-yl]carbonyl}octahydropyrazino[2,1-c][1,4]oxazin-3-yl]benzonitrile] | – | – | 200 nM | 650 nM |
| COc1ccc([C@@H]2CN3CCN(C(=O)Cc4ccc(-n5cnnn5)cc4)C[C@H]3CO2)c(C)c1C#N [Example 26, 6-methoxy-2-methyl-3-[(3R,9aS)-8-{[4-(1H-tetrazol-1-yl)phenyl]acetyl}octahydropyrazino[2,1-c][1,4]oxazin-3-yl]benzonitrile] | – | – | 140 nM | 260 nM |
| Cc1c([C@@H]2CN3CCN(C(=O)C4CCc5cc(-n6cnnn6)ccc54)C[C@H]3CO2)ccc(F)c1C#N (mixture of isomers) [Example 2A, 3-((3R,9aS)-8-(5-(1H-tetrazol-1-yl)-2,3-dihydro-1H-indene-1-carbonyl)octahydropyrazino[2,1-c][1,4]oxazin-3-yl)-6-fluoro-2-methylbenzonitrile] | – | – | 170 nM | 140 nM |
| Cc1c([C@H]2CN3CCN(C(=O)C4CCc5cc(-n6cnnn6)ccc54)C[C@H]3CO2)ccc(F)c1C#N (single isomer, unassigned) [Example 98] | – | – | 170 nM | 140 nM |
| Cc1c([C@@H]2CN3CCN(C(=O)Cc4ccc(-n5cnnn5)cc4Cl)C[C@H]3CO2)ccc(F)c1C#N [Example 70, 3-[(3R,9aS)-8-{[2-chloro-4-(1H-tetrazol-1-yl)phenyl]acetyl}octahydropyrazino[2,1-c][1,4]oxazin-3-yl]-6-fluoro-2-methylbenzonitrile] | – | 160 nM | 250 nM | – |
| COc1cc([C@@H]2CN3CCN(C(=O)C4CCc5cc(-n6cnnn6)ccc54)C[C@@H]3CO2)ccc1C#N (stereo partly drawn) [Example 64, 2-methoxy-4-[(3R,9aR)-8-{[5-(1H-tetrazol-1-yl)-2,3-dihydro-1H-inden-1-yl]carbonyl}octahydropyrazino[2,1-c][1,4]oxazin-3-yl]benzonitrile] | – | – | 270 nM | 210 nM |
| COc1ccc([C@@H]2CN3CCN(C(=O)C4CCc5cc(-n6cnnn6)ccc54)C[C@H]3CO2)c(C)c1C#N (stereo partly drawn) [Example 63, 6-methoxy-2-methyl-3-[(3R,9aS)-8-{[5-(1H-tetrazol-1-yl)-2,3-dihydro-1H-inden-1-yl]carbonyl}octahydropyrazino[2,1-c][1,4]oxazin-3-yl]benzonitrile] | – | – | 180 nM | 450 nM |
| Cc1c([C@@H]2CN3CCN(C(=O)C4CCCc5cc(-n6cnnn6)ccc54)C[C@H]3CO2)ccc2c1COC2=O (single isomer, unassigned) [Example 89] | – | – | 490 nM | 460 nM |
| Cc1c(CC(=O)N2CCN3C[C@H](c4ccc(F)c(C#N)c4C)OC[C@H]3C2)cccc1-n1cnnn1 [Example 61, 6-fluoro-2-methyl-3-[(3S,9aR)-8-{[2-methyl-3-(1H-tetrazol-1-yl)phenyl]acetyl}octahydropyrazino[2,1-c][1,4]oxazin-3-yl]benzonitrile] | – | – | 340 nM | 240 nM |
| COc1cc([C@@H]2CN3CCN(C(=O)C4CCc5cc(-n6cnnn6)ccc54)C[C@H]3CO2)ccc1C#N (stereo partly drawn) [Example 65, 2-methoxy-4-[(3R,9aS)-8-{[5-(1H-tetrazol-1-yl)-2,3-dihydro-1H-inden-1-yl]carbonyl}octahydropyrazino[2,1-c][1,4]oxazin-3-yl]benzonitrile] | – | – | 400 nM | 350 nM |
| COc1ccc([C@@H]2CN3CCN(C(=O)Cc4ccc(-n5cnnn5)cc4)C[C@H]3CO2)c(F)c1C#N [Example 25, 2-fluoro-6-methoxy-3-[(3R,9aS)-8-{[4-(1H-tetrazol-1-yl)phenyl]acetyl}octahydropyrazino[2,1-c][1,4]oxazin-3-yl]benzonitrile] | – | – | 150 nM | 200 nM |
